“Also recorded” adds a separate entry of the source.
Tests used:
TFEB = test: GFP-TFEB nuclear translocation (high-content screen, dose-response, confocal imaging); type: cell-based, human; conditions: for TFEB nuclear accumulation by AMPK activators: GFP-TFEB HeLa cells; for hit status in the TFEB screen overlapping with the autophagy (GFP-LC3) screen: compounds added for 4 hr, overlap with top 30 hits of autophagy screen
Protocol: GFP-TFEB HeLa cells were seeded in 384-well plates. Compounds were added for 4 hr the following day. Bafilomycin A1 (250 nM) treated cells were used as positive controls and DMSO-treated cells as negative controls. […] Images were collected using 405 nm and 488 nm laser lines with DAPI and FITC emission filters. Images were analyzed using the GE IN Cell Analyzer Workstation software. Briefly, nuclei were segmented using the Hoechst channel and the cytoplasm was segmented using the GFP channel. For each cell, the mean GFP intensity in each compartment was measured and used to calculate the nuclear to cytoplasmic (N/C) TFEB-GFP ratio. The same method as mentioned above was used to generate the top 30 compounds with highest condensed activity values and robust Z score values.
GFP-TFEB HeLa cells treated with compounds or DMSO were fixed and stained with Hoechst. Images from at least 3 different fields per sample were acquired using a 40× objective on a Zeiss confocal microscope and analyzed with ImageJ. 20-30 cells were evaluated from each image for each sample, and 3 independent experiments were performed to generate the graphed values.

[1] = tested on: mice under fed and fast conditions; test: Short-term starvation and chloroquine-induced acute hepatic lipid accumulation in mice; type: in vivo, mouse; conditions: overnight fast; CQ intraperitoneal; DG oral co-administration
Protocol: SFIGS. […] (SFIG. 6A) The body weight (left y-axis, solid symbols) and food intake (right y-axis, open symbols) measured in normal-diet-fed mice treated with vehicle or 2.5 mg/kg DG. (SFIG. 6B) Drug release curves of AD (upper panel) and IKA (lower panel) in PBS. […] (SFIG. 6F) Cells were treated with various doses DG, AD and IKA for 4 hours, and cell viability was measured immediately or after 72 hours. Dose response curves were simulated using ImageJ. (SFIG. 6G) H&E staining of heart, spleen and kidney sections from mice treated with DG, AD, IKA and their corresponding controls. Scale bar, 100 μm. (SFIG. 6H) H&E staining of liver and heart sections as well as ORO and p62/SQSTM1 IHC staining of liver sections from mice under fed and fast conditions with orally injected DG and intraperitoneally injected CQ, individually and jointly, or their corresponding control (Saline). Scale bar, 50 μm. (SFIG. 6I) The body weight of mice after the treatment described in SFIG. 6H. (SFIGS. 6J-L) Total serum levels of triglyceride, cholesterol and glucose of mice after the treatment described in SFIG. 6G.

HeLa cells = test: Cellular ROS level (CellROX Green); type: cell-based, human; conditions: 4 hrs
Text: SFIGS. 5A-I. Small-molecule activators of TFEB engage different sources of Ca. (SFIG. 5A) HeLa cells were pretreated with or without N-acetyl-cysteine (NAC) for 1 hr and then treated with tert-butyl hydroperoxide (TBHP) or AD for 4 hrs. TBHP and NAC were used as positive and negative controls. A ROS-sensitive DNA dye CellROX Green was used to detect cellular ROS levels after these treatments. Endogenous TFEB localization was also shown. (SFIG. 5B) Quantification of the fluorescent intensity of CellROX Green in cells treated as in a was done by a plate reader. (SFIG. 5C) Quantification of endogenous TFEB nuclear translocation in SFIG. 5A. (SFIG. 5D) Cells were pretreated with or without 25 μM IP3R inhibitor Xestosporine C (Xesto) for 1 hr and then treated with DG, AD and IKA for indicated time. Quantification of TFEB translocation was shown in SFIG. 5E-G (graphs represent mean±s.d. **p<0.01, ***p<0.001, ****p<0.0001). (SFIG. 5H-I) RNA-interference were used to knock down inositol […] receptor type 1 (IP3R1) in GFP-TFEB cells before they were treated with DG, AD and IKA. siLONRF1 was used as a negative control. TFEB translocation percentage was quantified from images as shown in SFIG. 5I (mean±s.d. for n=3 independent experiments, ****p<0.0001). Scale bar, 20 μm.

mTORC1 = test: TSC2 dependence of mTORC1 inhibition and TFEB activation in p53-/- and p53-/-, TSC2-/- MEFs; type: cell-based, mouse; conditions: p53-/- vs p53-/-

Structure (SMILES) | TFEB nuclear accumulation by AMPK activators (TFEB) | hit status in the TFEB screen overlapping with the autophagy (GFP-LC3) screen (TFEB) | also measured
NC(=O)c1ncn([C@@H]2O[C@H](COP(=O)(O)O)[C@@H](O)[C@H]2O)c1N [AICAR, 5-aminoimidazole-4-carboxamide ribonucleotide, reference compound] | sufficient to induce TFEB nuclear accumulation | – | –
CCN(CC)CCCC(C)Nc1ccnc2cc(Cl)ccc12 (stereo not shown) [CQ, chloroquine] | – | – | fast-induced hepatic lipid accumulation [1]: exacerbated
CC(C)(C)OO [TBHP, tert-Butyl hydroperoxide, reference compound] | – | – | ROS production (HeLa cells): comparable ROS production
C[C@@H]1C[C@@H]([C@H](O)CC2CC(=O)NC(=O)C2)C(=O)[C@@H](C)C1 [cycloheximide, reference compound] | – | top 18 hits | –
CN(C)C(=N)N=C(N)N [metformin, reference compound] | sufficient to induce TFEB nuclear accumulation | – | –
C[C@@H]1O[C@@H](O[C@@H]2C=C3CC[C@@H]4[C@H](CC[C@]5(C)[C@@H](c6ccc(=O)oc6)CC[C@]45O)[C@@]3(C)CC2)[C@H](O)[C@H](O)[C@H]1O [proscillaridin A, reference compound] | – | top 18 hits; also recorded: top scoring hits | dependence of mTORC1 inhibition / TFEB activation on TSC2 (mTORC1): independent
